From PubChem BioAssay AID248 (DTP/NCI, 2004)
Several values for one entry are separate records, joined by “and”; a condition that tells them apart may be missing. Equal entries are not always repeated. Inconclusive results and toxic doses are left out. Cut-off read from the data, not from the text of the source: active = T/C of 150% or more; inactive = T/C below 125%.

Test system: L1210 leukemia ip in BDF1 mice, survival T/C
Test: NCI In Vivo Anticancer Drug Screen. Data for tumor model L1210 Leukemia (intraperitoneal) in B6D2F1 (BDF1) mice
Conditions: endpoint: mean survival time, higher = longer survival
Outline: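 Survival endpoint. Drug-treated group vs vehicle group, expressed as T divided by C. Tumor passaged by transplantation.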

[1] = dose: 25.0 mg/kg/injection, schedule: Q01DX009 (ip), vehicle: saline
[2] = dose: 200.0 mg/kg/injection, schedule: Q01DX001 (ip), vehicle: saline
[3] = dose: 100.0 mg/kg/injection, schedule: Q01DX009 (ip), vehicle: Klucel (hydroxypropylcellulose) (HPC)
[4] = dose: 100.0 mg/kg/injection, schedule: Q04DX003 (ip), vehicle: Klucel (hydroxypropylcellulose) (HPC)
[5] = dose: 200.0 mg/kg/injection, schedule: Q01DX009 (ip), vehicle: Klucel (hydroxypropylcellulose) (HPC)
[6] = dose: 200.0 mg/kg/injection, schedule: Q04DX003 (ip), vehicle: Klucel (hydroxypropylcellulose) (HPC)
[7] = dose: 400.0 mg/kg/injection, schedule: Q01DX009 (ip), vehicle: Klucel (hydroxypropylcellulose) (HPC)
[8] = dose: 400.0 mg/kg/injection, schedule: Q04DX003 (ip), vehicle: Klucel (hydroxypropylcellulose) (HPC)
[9] = dose: 100.0 mg/kg/injection, schedule: Q01DX001 (ip), vehicle: saline
[10] = dose: 400.0 mg/kg/injection, schedule: Q01DX001 (ip), vehicle: saline
[11] = dose: 50.0 mg/kg/injection, schedule: Q01DX009 (ip), vehicle: saline with Tween-80
[12] = dose: 100.0 mg/kg/injection, schedule: Q01DX009 (ip), vehicle: saline with Tween-80
[13] = dose: 6.25 mg/kg/injection, schedule: Q01DX009 (ip), vehicle: saline
[14] = dose: 100.0 mg/kg/injection, schedule: Q04DX002 (ip), vehicle: Klucel (hydroxypropylcellulose) (HPC)
[15] = dose: 200.0 mg/kg/injection, schedule: Q04DX002 (ip), vehicle: Klucel (hydroxypropylcellulose) (HPC)
[16] = dose: 400.0 mg/kg/injection, schedule: Q04DX002 (ip), vehicle: Klucel (hydroxypropylcellulose) (HPC)
[17] = dose: 100.0 mg/kg/injection, schedule: Q01DX001 (ip), vehicle: Klucel (hydroxypropylcellulose) (HPC)
[18] = dose: 400.0 mg/kg/injection, schedule: Q01DX001 (ip), vehicle: Klucel (hydroxypropylcellulose) (HPC)

Measured: T/C

Clc1ccc(C(c2ccc(Cl)cc2)C(Cl)(Cl)Cl)cc1
inactive: dose: 12.0 mg/kg/injection, schedule: Q01DX009 (ip), vehicle: saline 95 % of control | dose: 12.5 mg/kg/injection, schedule: Q01DX009 (ip), vehicle: acetone 97 % of control | dose: 25.0 mg/kg/injection, schedule: Q01DX009 (ip), vehicle: Klucel (hydroxypropylcellulose) (HPC) 90 % of control | dose: 25.0 mg/kg/injection, schedule: Q01DX009 (ip), vehicle: acetone 93 % of control | [1] 92 % of control | dose: 50.0 mg/kg/injection, schedule: Q01DX009 (ip), vehicle: Klucel (hydroxypropylcellulose) (HPC) 92 % of control | dose: 50.0 mg/kg/injection, schedule: Q01DX009 (ip), vehicle: acetone 100 % of control and 86 % of control | dose: 100.0 mg/kg/injection, schedule: Q01DX001 (ip), vehicle: acetone 93 % of control | dose: 100.0 mg/kg/injection, schedule: Q01DX009 (ip), vehicle: acetone 94 % of control | dose: 200.0 mg/kg/injection, schedule: Q01DX001 (ip), vehicle: acetone 87 % of control | [2] 90 % of control | dose: 200.0 mg/kg/injection, schedule: Q01DX009 (ip), vehicle: acetone 97 % of control | dose: 400.0 mg/kg/injection, schedule: Q01DX001 (ip), vehicle: acetone 92 % of control | dose: 800.0 mg/kg/injection, schedule: Q01DX001 (ip), vehicle: acetone 88 % of control | dose: 800.0 mg/kg/injection, schedule: Q01DX001 (ip), vehicle: saline 87 % of control

O=C(Nc1ccccc1F)c1ccccc1
inactive: [3] 97 % of control | [4] 96 % of control | [5] 87 % of control | [6] 98 % of control | [7] 89 % of control | [8] 104 % of control

COc1cc2ccc(C(C)NCC#N)cc2cc1OC (stereo not drawn)
inactive: [3] 97 % of control | [4] 88 % of control | [5] 101 % of control | [6] 93 % of control | [8] 106 % of control

COc1ccc(C(=O)c2cnc(C)n2Cc2ccccc2)cc1
inactive: [3] 106 % of control | [5] 106 % of control | [7] 114 % of control

C[N+]1(C)C2C=CCC1CSC2 (stereo not drawn)
inactive: dose: 15.0 mg/kg/injection, schedule: Q01DX001 (ip), vehicle: saline 110 % of control

CN1CCN(c2c3c(nc4ccccc24)CCCC3)CC1
inactive: [9] 96 % of control

Cc1ccc(N)cc1Br
inactive: [9] 102 % of control | dose: 100.0 mg/kg/injection, schedule: Q01DX009 (ip), vehicle: saline 100 % of control | [2] 94 % of control | dose: 200.0 mg/kg/injection, schedule: Q01DX009 (ip), vehicle: saline 90 % of control | [10] 94 % of control | dose: 400.0 mg/kg/injection, schedule: Q01DX009 (ip), vehicle: saline 103 % of control

C#CC[P+](c1ccccc1)(c1ccccc1)c1ccccc1
inactive: dose: 6.25 mg/kg/injection, schedule: Q01DX001 (ip), vehicle: saline 106 % of control | dose: 12.5 mg/kg/injection, schedule: Q01DX001 (ip), vehicle: saline 109 % of control | dose: 25.0 mg/kg/injection, schedule: Q01DX001 (ip), vehicle: saline 116 % of control and 118 % of control

Cc1cc(=O)n(-c2ccccc2)c2ccccc12
inactive: [9] 103 % of control | [2] 97 % of control | [10] 100 % of control

Nc1c(Cl)cc2c(c1Br)Cc1ccccc1-2
inactive: dose: 50.0 mg/kg/injection, schedule: Q01DX001 (ip), vehicle: carboxymethylcellulose (CMC) 107 % of control | dose: 100.0 mg/kg/injection, schedule: Q01DX001 (ip), vehicle: carboxymethylcellulose (CMC) 107 % of control | dose: 200.0 mg/kg/injection, schedule: Q01DX001 (ip), vehicle: carboxymethylcellulose (CMC) 117 % of control | dose: 400.0 mg/kg/injection, schedule: Q01DX001 (ip), vehicle: carboxymethylcellulose (CMC) 107 % of control

CCC1(c2ccccc2)C(=O)N(Cl)C(=O)N(Cl)C1=O
inactive: dose: 25.0 mg/kg/injection, schedule: Q01DX009 (ip), vehicle: saline with Tween-80 98 % of control | [11] 98 % of control | [12] 93 % of control

CC(=Nc1ccc(NC(=O)c2ccc(C(=O)Nc3ccc(N=C(C)Nc4ccccc4)cc3)cc2)cc1)Nc1ccccc1
inactive: dose: 15.0 mg/kg/injection, schedule: Q01DX Z (ip), vehicle: saline 93 % of control | dose: 30.0 mg/kg/injection, schedule: Q01DX Z (ip), vehicle: saline 92 % of control | dose: 60.0 mg/kg/injection, schedule: Q01DX Z (ip), vehicle: saline 97 % of control | dose: 120.0 mg/kg/injection, schedule: Q01DX Z (ip), vehicle: saline 93 % of control

CN(C)c1ccc(/C=C2\CCC/C(=C\c3ccc(N(C)C)cc3)C2=O)cc1
inactive: [4] 96 % of control | [6] 96 % of control | [8] 92 % of control

CC(=O)/C(C)=N/O
inactive: [9] 98 % of control | [2] 98 % of control | [10] 96 % of control

[CH3][Sn]([Br])([Br])[CH2]CCCBr
inactive: dose: 1.56 mg/kg/injection, schedule: Q01DX009 (ip), vehicle: saline 103 % of control | dose: 3.12 mg/kg/injection, schedule: Q01DX009 (ip), vehicle: saline 112 % of control | [13] 100 % of control

Cc1ccc(CNCC(=O)O)cc1
inactive: dose: 50.0 mg/kg/injection, schedule: Q01DX009 (ip), vehicle: water 102 % of control | dose: 100.0 mg/kg/injection, schedule: Q01DX009 (ip), vehicle: water 98 % of control | dose: 100.0 mg/kg/injection, schedule: Q01DX Z (ip), vehicle: saline 96 % of control | dose: 100.0 mg/kg/injection, schedule: Q04DX003 (ip), vehicle: water 95 % of control | dose: 200.0 mg/kg/injection, schedule: Q01DX009 (ip), vehicle: water 95 % of control | dose: 200.0 mg/kg/injection, schedule: Q01DX Z (ip), vehicle: saline 104 % of control | dose: 200.0 mg/kg/injection, schedule: Q04DX003 (ip), vehicle: water 88 % of control

CC(=O)Cc1cc(C)nc(/N=C(\N)Nc2ccccc2)n1
inactive: [14] 93 % of control | [15] 104 % of control

Cc1ccc(CNC(=O)NC(C)(C)C)cc1C
inactive: [14] 103 % of control | [15] 111 % of control | [16] 100 % of control

c1ccc2c[n+]3ccccc3cc2c1
inactive: [13] 103 % of control | dose: 12.5 mg/kg/injection, schedule: Q01DX009 (ip), vehicle: saline 100 % of control | [1] 111 % of control

CC(C)/C=N\NC(=O)c1ccc[n+](C)c1
inactive: [11] 100 % of control | [12] 92 % of control

CC(C)(C)OC(=O)NN=C1CCC(C(C)(C)C)CC1 (stereo not drawn)
inactive: dose: 100.0 mg/kg/injection, schedule: Q04DX003 (ip), vehicle: acetone 98 % of control | dose: 200.0 mg/kg/injection, schedule: Q04DX003 (ip), vehicle: acetone 96 % of control | dose: 400.0 mg/kg/injection, schedule: Q04DX003 (ip), vehicle: acetone 93 % of control

O=C(O)/C=C(\CC(=O)O)C(=O)O
inactive: [17] 95 % of control | [9] 92 % of control | [2] 90 % of control | [18] 95 % of control | [10] 98 % of control

CCOC(=O)c1cccnc1N(C(=O)c1ccccc1)C(=O)c1ccccc1
inactive: [14] 95 % of control | [15] 95 % of control | [16] 89 % of control

O=C1C(=O)c2c(nc3ccccn23)-c2ccccc21
inactive: [17] 103 % of control | dose: 200.0 mg/kg/injection, schedule: Q01DX001 (ip), vehicle: Klucel (hydroxypropylcellulose) (HPC) 94 % of control | [18] 105 % of control

CNC1CC(N)C(O)C(OC2OC(CO)C(O)C3OC4(OC(C(N)CO)C(O)C(O)C4O)OC23)C1O (stereo not drawn)
inactive: dose: 2.2 mg/kg/injection, schedule: Q01DX Z (ip), vehicle: saline 97 % of control | dose: 3.3 mg/kg/injection, schedule: Q01DX Z (ip), vehicle: saline 94 % of control | dose: 5.0 mg/kg/injection, schedule: Q01DX Z (ip), vehicle: saline 89 % of control | dose: 7.6 mg/kg/injection, schedule: Q01DX Z (ip), vehicle: saline 94 % of control
